Several values for one entry are separate records, joined by “and”; a condition that tells them apart may be missing. Equal values may be shown once.
Tests used:
[1] = route of dosing not described; U.S. Pat. No. 5,798,335; cited from earlier work
[2] = aqueous solutions; U.S. Pat. No. 7,390,788; cited from earlier work
[3] = test system: plasma inflammatory cytokines; conditions: Ruff, cited from earlier work
[4] = test system: normal human epidermal keratinocytes; conditions: Hu, Paoletti, 2013; cited from earlier work
[5] = test system: TLR4-mediated maturation of dendritic cells
Experimental: To determine whether all-D-TTNYT (SEQ ID NO: 1) blocks maturation of dendritic cells human PBMC's were isolated from peripheral blood by Ficoll-Paque centrifugation and then monocytes were isolated by negative selection using immunobeads (Miltenyi). Human monocyte derived immature dendritic cells (iDCs) were then generated by treating monocytes with GM-CSF/IL4 for 5 days.
The iDCs were treated with all-D-TTNYT (SEQ ID NO: 1) at 10^−12 M for 30 min. After 30 min LPS (100 ng/ml) was added to the cells and cells were analyzed after 48 hrs for surface maturation markers using fluorescent labeled antibodies by flow cytometry. […] The surface markers control T cell activation and localization in tissues. DCs, like microglia, are derived from differentiated monocytes and serve as the innate and adaptive sentinel cells of the skin and brain, respectively. Blockade of DC or microglial activation would suppress inflammation.

[6] = topical oil/water lotion 50 μg/ml, 2× per day, 28 days
Experimental: Self-reported “Severity Scores” on a scale of 1-10 (with 10 being most severe) were recorded in a daily symptom report form to record the symptom score and compliance. The change from baseline is plotted for the day 0, 7, 14, 21, 28 and 35 (one week “off” treatment) symptom scores.
Topical administration of all-D-TTNYT (SEQ ID NO: 1) was formulated in an oil/water lotion consisting of deionized water, caprylic/capric triglyceride, polyglyceryl-6-stearate, polyglyceryl-6-behenate, cetearyl alcohol, and glyceryl stearate.

[7] = test system: DC maturation caused by LL37 (IGF-1R)
[8] = test system: rodent spinal cord tissue; conditions: Rat, Padi, 2012; cited from earlier work
response to bradykinin = conditions: amounts up to 50,000 times the standard challenge of bradykinin; cited from earlier work
[9] = Hu, DAPTA administered for 7 weeks
[10] = Hu dendritic cells, peptide 10^-12 M 30 min, then LPS 100 ng/ml, 48 hrs, unpublished

Substance: Dalal-peptide T-amide [DAPTA]
- improvement of eczema/dermatitis in dogs [1]: Improvement in two dogs with dermatitis, mild improvement in five cases of erythema, and no improvement in ten cases
- aggregation and loss of potency upon storage [2]: high propensity for DAPTA to aggregate and lose potency
- IL-1 change [3, 9]: decrease
- IL-6 change [3, 9]: decrease
- IL-8 change [3, 9]: decrease
- TNFα change [3, 9]: decrease
- anti-inflammatory cytokine IL-10 (M2-type) change ([3]; human subjects, DAPTA for 7 weeks): increased
- ICAM1 change [4]: decrease
- IL-6 change [4]: decrease
- IL-8 change [4]: decrease
- IL-23 change [4]: decrease
- pSTAT3 change [4]: decrease

Substance: all-D-TTNYT
- CD58 change [5, 10]: decrease
- CD86 change [5, 10]: decrease
- DR change [5, 10]: decrease
- ICAM1 change [5, 10]: decrease
- expression of maturation markers CD86, HLA-DR, CD58 and ICAM1 ([5]; iDCs pre-treated with peptide, then LPS, flow cytometry): reduces expression of all the maturation markers
- self-reported Severity Scores in dermatocosmetic conditions ([6]; five subjects, scale 1-10): improved
- appearance of rosacea, atopic dermatitis, and psoriasis ([6]; subject reports): improvements in the appearance of rosacea, atopic dermatitis, and psoriasis
- effect on DC maturation of the four markers caused by LL37 [7]: no effect
- IL-1β change [8]: decrease
- IL-6 change [8]: decrease

Substance: all-D-TTNYT-NH2
- Timed Walk, Post (after topical lotion 50 μg/ml, 2× per day to feet, 28 days, measured fixed distance): 24 s
- Pain Score, Post (after topical lotion 50 μg/ml, 2× per day to feet, 28 days, scale 1-10, per subject): 3
- Timed Walk, Pre (before treatment (baseline), measured fixed distance): 48 s
- Pain Score, Pre (before treatment (baseline), self-reported scale 1-10, per subject): 7 and 6
- pain sensitivity on self-reported Severity Scores (two subjects with diabetic neuropathy symptoms, topical lotion 50 μg/ml, 2× per day): Reduced pain sensitivity

Substance: all-D-bradykinin
- inhibition of the response to bradykinin or bradykinin-like effect (response to bradykinin): neither any inhibition of the response to bradykinin, or any bradykinin-like effect
